Measurements reported in publication PMC9304199, “A small molecule CFTR potentiator restores ATP‐dependent channel gating to the cystic fibrosis mutant G551D‐CFTR” (British Journal of Pharmacology, 2022).
Where two headings read alike, the source gives them in different places.

Experiments:
[1] = molecular target: F508del‐CFTR (Homo sapiens, UniProt P13569, DEL508-508); assay: F508del‐CFTR plasma membrane stability in FRT epithelia (Ussing chamber Isc after cycloheximide); type: cell-based; parameters: expressed in transfected cells; BHK cells from MD Amaral; details: for acute potentiation of forskolin-stimulated CFTR-mediated Isc: DMSO-treated low temperature-rescued F508del‐CFTR FRT epithelia, t = 0 h, forskolin 10 μM, ivacaftor 1 μM, then CP‐628006 10 μM
Sequence of F508del‐CFTR (P13569 with tags, fused parts or gaps DEL508-508): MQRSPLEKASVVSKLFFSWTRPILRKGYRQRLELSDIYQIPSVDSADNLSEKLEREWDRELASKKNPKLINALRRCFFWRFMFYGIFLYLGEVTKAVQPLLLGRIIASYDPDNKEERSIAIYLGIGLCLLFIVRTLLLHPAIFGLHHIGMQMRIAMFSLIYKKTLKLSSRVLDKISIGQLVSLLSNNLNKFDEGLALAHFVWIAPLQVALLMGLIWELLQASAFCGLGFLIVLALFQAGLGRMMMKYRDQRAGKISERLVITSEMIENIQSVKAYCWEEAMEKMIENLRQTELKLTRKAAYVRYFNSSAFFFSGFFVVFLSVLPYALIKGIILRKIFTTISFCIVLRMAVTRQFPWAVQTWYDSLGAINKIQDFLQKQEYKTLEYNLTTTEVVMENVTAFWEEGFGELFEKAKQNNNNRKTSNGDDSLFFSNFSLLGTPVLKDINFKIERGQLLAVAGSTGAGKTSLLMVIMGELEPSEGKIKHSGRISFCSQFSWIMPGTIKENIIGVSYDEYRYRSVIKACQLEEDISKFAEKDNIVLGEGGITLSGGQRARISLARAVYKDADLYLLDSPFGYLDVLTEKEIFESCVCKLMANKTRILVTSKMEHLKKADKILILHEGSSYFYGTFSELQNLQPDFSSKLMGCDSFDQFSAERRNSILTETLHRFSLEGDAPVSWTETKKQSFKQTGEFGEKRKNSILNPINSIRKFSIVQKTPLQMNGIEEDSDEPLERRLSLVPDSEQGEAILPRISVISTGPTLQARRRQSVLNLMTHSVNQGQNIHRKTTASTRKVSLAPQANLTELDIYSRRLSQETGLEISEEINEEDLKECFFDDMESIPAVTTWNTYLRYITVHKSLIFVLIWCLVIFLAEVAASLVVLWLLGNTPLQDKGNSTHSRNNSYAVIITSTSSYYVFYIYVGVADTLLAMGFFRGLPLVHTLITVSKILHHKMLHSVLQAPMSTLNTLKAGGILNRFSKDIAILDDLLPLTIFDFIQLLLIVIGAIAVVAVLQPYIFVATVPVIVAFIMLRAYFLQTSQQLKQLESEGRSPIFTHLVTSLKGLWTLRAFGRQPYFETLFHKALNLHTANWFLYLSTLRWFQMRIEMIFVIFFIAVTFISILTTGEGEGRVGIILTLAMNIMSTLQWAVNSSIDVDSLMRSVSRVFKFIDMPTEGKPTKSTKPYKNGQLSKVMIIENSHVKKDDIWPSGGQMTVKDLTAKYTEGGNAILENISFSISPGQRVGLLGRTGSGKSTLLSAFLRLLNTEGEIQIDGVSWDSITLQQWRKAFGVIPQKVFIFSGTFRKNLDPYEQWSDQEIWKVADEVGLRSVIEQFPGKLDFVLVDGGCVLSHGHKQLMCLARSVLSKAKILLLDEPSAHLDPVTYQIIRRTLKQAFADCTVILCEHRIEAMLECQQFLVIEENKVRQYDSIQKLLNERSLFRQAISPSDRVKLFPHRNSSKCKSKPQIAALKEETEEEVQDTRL
Experimental: To evaluate the effects of CP‐628006 on the plasma membrane stability of F508del‐CFTR, we used a modification of the method described by Meng et al. ([2017]). After 48‐h incubation at 27°C to rescue the plasma membrane expression of F508del‐CFTR, FRT epithelia were treated with cycloheximide (50 μg·ml^−1) and DMSO or test small molecules, 15 min prior to t = 0 h. At t = 0, 2, 4, and 6 h after these treatments, F508del‐CFTR expressing FRT epithelia were mounted in Ussing chambers (Warner Instrument Corp., Dual Channel Chamber; Harvard Apparatus Ltd., Edenbridge, UK) and Isc responses recorded.
CFTR‐mediated Isc was recorded using a large Cl^− concentration gradient without permeabilizing the basolateral membrane. The solution bathing the basolateral membrane contained (mM): 140 NaCl, 5 KCl, 0.36 K2HPO4, 0.44 KH2PO4, 1.3 CaCl2, 0.5 MgCl2, 10 HEPES, and 4.2 NaHCO3, adjusted to pH 7.2 with Tris ([Cl^−], 149 mM). The solution bathing the apical membrane was identical to that of the basolateral solution with the exception that (mM): 133.3 Na gluconate + 2.5 NaCl and 5 K gluconate replaced 140 NaCl and 5 KCl, respectively, ([Cl^−], 14.8 mM). To compensate for the calcium buffering capacity of gluconate, we used 5.7‐mM Ca^2+ in the apical solution. All solutions were maintained at 37°C and bubbled continuously with 5% CO2.
After cancelling voltage offsets, we clamped transepithelial voltage (referenced to the basolateral solution) at 0 mV and recorded Isc continuously using an epithelial voltage‐clamp amplifier (Warner Instrument Corp., model EC‐825; Harvard Apparatus Ltd.), digitising data as described previously (Li et al., [2004]). The resistance of the filter and solutions, in the absence of cells, was subtracted from all measurements.

[2] = molecular target: G551D‐CFTR (Homo sapiens, UniProt P13569, G551D); assay: Single-channel recording in excised inside-out membrane patches, G551D‐CFTR; type: biochemical; parameters: expressed in transfected cells; BHK cells from MD Amaral; details: for enhancement of Po(app): each compound 10 μM, alone or together; for Emax: read-out: Maximal effect (%) (95% CI)
Sequence of G551D‐CFTR (P13569 whole entry G551D): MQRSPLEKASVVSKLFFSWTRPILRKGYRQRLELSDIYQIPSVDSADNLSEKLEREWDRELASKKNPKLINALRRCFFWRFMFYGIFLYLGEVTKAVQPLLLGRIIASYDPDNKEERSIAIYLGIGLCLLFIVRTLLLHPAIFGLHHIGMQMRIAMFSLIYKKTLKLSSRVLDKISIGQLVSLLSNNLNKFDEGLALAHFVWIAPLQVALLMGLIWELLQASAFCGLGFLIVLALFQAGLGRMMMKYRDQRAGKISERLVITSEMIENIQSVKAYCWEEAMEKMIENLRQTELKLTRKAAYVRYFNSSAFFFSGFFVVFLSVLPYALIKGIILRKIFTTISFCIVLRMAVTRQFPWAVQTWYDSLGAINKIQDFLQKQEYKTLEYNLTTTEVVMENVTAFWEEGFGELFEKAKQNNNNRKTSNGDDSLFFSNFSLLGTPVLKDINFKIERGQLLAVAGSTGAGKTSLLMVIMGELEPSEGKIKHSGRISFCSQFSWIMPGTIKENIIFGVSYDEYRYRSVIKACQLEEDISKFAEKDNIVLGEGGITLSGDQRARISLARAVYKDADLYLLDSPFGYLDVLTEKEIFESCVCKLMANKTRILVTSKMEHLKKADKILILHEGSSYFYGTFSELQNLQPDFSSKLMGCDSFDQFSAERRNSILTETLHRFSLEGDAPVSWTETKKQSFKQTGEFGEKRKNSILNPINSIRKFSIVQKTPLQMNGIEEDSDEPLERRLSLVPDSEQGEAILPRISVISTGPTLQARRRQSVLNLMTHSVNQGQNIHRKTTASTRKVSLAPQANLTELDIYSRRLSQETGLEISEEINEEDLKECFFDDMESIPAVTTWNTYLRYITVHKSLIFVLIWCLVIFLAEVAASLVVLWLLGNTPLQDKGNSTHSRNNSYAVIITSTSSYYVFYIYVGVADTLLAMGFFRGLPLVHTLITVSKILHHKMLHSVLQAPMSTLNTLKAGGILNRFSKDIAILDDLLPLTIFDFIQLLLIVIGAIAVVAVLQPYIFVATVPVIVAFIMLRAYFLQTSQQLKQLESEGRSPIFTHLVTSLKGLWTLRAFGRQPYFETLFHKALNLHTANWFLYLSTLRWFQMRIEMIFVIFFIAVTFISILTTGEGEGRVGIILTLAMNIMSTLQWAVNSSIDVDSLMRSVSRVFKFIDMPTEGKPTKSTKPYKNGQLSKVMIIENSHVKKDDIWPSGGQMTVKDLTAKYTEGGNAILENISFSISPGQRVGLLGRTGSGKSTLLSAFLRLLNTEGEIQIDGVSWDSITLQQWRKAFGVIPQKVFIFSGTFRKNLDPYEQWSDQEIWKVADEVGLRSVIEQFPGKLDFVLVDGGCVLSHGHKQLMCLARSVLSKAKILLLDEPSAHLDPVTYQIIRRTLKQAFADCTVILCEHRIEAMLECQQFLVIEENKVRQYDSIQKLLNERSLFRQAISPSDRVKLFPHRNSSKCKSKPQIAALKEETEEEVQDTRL
Experimental: (§1) For CFTR studies using automated electrophysiology and single-channel recording, we used baby hamster kidney (BHK) cells (RRID:CVCL_1915) and human embryonic kidney (HEK) 293 cells (RRID:CVCL_0045) stably expressing wild-type human CFTR and the CFTR variants F508del- and […] et al., [2002]; Xu et al., [2014]). […] HEK cells expressing CFTR variants were generated using the Flp-InTM system as described above for F508del- and G551D-CFTR-expressing FRT cells. They were cultured in Dulbecco's modified Eagle's medium (glucose, 1.5 g·L^-1; sodium pyruvate, 110 mg·L^-1) supplemented with 10% FBS (PAA Laboratories), GlutaMAXTM and hygromycin-B (150 μg·ml^-1; InvitrogenTM, Thermo Fisher Scientific) at 37°C in a humidified atmosphere with 5% CO2. Prior to study, F508del-CFTR expressed in HEK cells was trafficked to the plasma membrane by low temperature incubation (27°C for 24-72 h). The single-channel behaviour of human CFTR in excised membrane patches from different mammalian cell lines heterologously expressing CFTR is equivalent (wild-type CFTR, Chen et al., [2009]; F508del-CFTR, Bose et al., [2019]; and G551D-CFTR, J Liu, Y Wang, Z Cai, and DN Sheppard, unpublished observations). CFTR Cl^- channels were recorded in excised inside-out membrane patches using an Axopatch 200B patch-clamp amplifier and pCLAMP software (version 10.3) (RRID:SCR_011323) (both from Molecular Devices, San Jose, CA, USA) (Sheppard & Robinson, [1997]). […] Within 2 min after membrane patch excision, we added the catalytic subunit of protein kinase A (PKA; 75 nM) and ATP (1 mM) to the intracellular solution to activate CFTR Cl^- channels. To minimise channel rundown, we added PKA and millimolar concentrations of ATP to all intracellular solutions and clamped voltage at -50 mV. […] We reduced the ATP concentration when testing CFTR potentiators on wild-type CFTR to observe their effects more clearly. […] Instead, specific interventions with CFTR potentiators were compared with the pre-intervention control period made with the same concentration of ATP and PKA, but without test compounds. […] F508del-CFTR, n ≤ 4; G551D-CFTR, n ≤ 5). To determine channel number, we used the maximum number of simultaneous channel openings observed during an experiment (Cai et al., [2006]). To minimise errors, we used experimental conditions that robustly potentiate channel activity and verified that recordings were of sufficient length to ascertain the correct number of channels ([…] et al., [1994]). […] Despite our precautions, we cannot exclude the possibility of unobserved G551D-CFTR Cl^- channels in excised membrane patches causing Po values for G551D-CFTR to be […]. Therefore, Po values for G551D-CFTR are expressed as apparent Po (Po(app)) values. Single-channel currents were directly acquired to a computer hard disc after filtering at a corner frequency (f c) of 500 Hz with an eight-pole Bessel filter (model LHBF-48×; npi electronic GmbH, Tamm, Germany) and digitising at a sampling rate of 5 kHz using a Digidata 1440A interface (Molecular Devices) and pCLAMP software. To measure single-channel current amplitude (i), Gaussian distributions were fit to current amplitude histograms. For Po and burst analyses, lists of open- and closed-times were created using a half-amplitude crossing criterion for event detection and dwell-time histograms constructed as previously described (Sheppard & Robinson, [1997]); transitions < 1 ms were excluded from the analysis (eight-pole Bessel filter rise time [T 10-90] ~ 0.73 ms at f c = 500 Hz). Histograms were fitted with one or more component exponential functions using the maximum likelihood method. […] The mean interburst interval (TIBI) was calculated using the equation (Cai et al., [2006]): (1) Po=Tb/TMBD+TIBI, where T b = (mean burst duration) × (open probability within a burst). Mean burst duration (T MBD) and open probability within a burst (Po[burst]) were determined directly from experimental data using pCLAMP software. […]

[3] = molecular target: T1, wild‐type CFTR (Homo sapiens, UniProt P13569); assay: Single-channel recording in excised inside-out membrane patches, wild-type CFTR; type: biochemical; details: ATP 0.3 mM; for maximum Po (Po max) / EC50: PKA 75 nM, ~23°C; for EC50: read-out: EC50 for potentiation of Po
T1 construct: expressed in transfected cells
T1 sequence (P13569 whole entry): as the sequence (P13569 whole entry G551D) above, with D551G counted along it
Experimental: as §1, with “software.” for “software. To measure single-channel current amplitude (i), Gaussian distributions were fit to current amplitude histograms. For Po and burst analyses, lists of open- and closed-times were created using a half-amplitude crossing criterion for event detection and dwell-time histograms constructed as previously described (Sheppard & Robinson, [1997]); transitions < 1 ms were excluded from the analysis (eight-pole Bessel filter rise time [T 10-90] ~ 0.73 ms at f c = 500 Hz). Histograms were fitted with one or more component exponential functions using the maximum likelihood method.”

[4] = G551D‐CFTR Cl− channels, excised inside-out patches, 23°C, data normalised to ivacaftor 1 μM, read-out: EC50 (μM) (95% CI)
[5] = G551D‐CFTR, ATP 1 mM, PKA 75 nM, ~23°C
[6] = G551D‐CFTR, ATP 1 mM, PKA 75 nM, ~23°C, read-out: EC50 for potentiation of Po(app)
[7] = G551D‐CFTR, compound 10 μM, ATP 0.1–3 mM

Row | Compound | acute potentiation of forskolin-stimulated CFTR-mediated Isc [1] | decline of CFTR-mediated Isc over 6 h ([1]; low temperature-rescued F508del‐CFTR FRT epithelia treated with cycloheximide 50 μg·ml−1 and compound 10 μM, 37°C) | EC50 [2, 4] | Po(app) max [2, 5] | EC50 [2, 6] | Po(app) max of ATP-dependence in presence of compound [2, 7] | enhancement of Po(app) ([2]; G551D‐CFTR, ATP 1 mM) | Emax [2] | maximum Po (Po max) [3] | EC50 [3] | ATP-dependence of G551D‐CFTR activity in presence of compound [2, 7] | greater potency than CP‐628006 [3]
1 | Cc1ncccc1CNC(=O)c1ccc2c(c1)CC[C@H]1C[C@](O)(CCC(F)(F)F)CC[C@]21Cc1ccccc1 (racemic) [CP‐628006, rac‐(4bR,7R,8aS)‐4b‐benzyl‐7‐hydroxy‐N‐((2‐methylpyridin‐3‐yl)methyl)‐7‐(3,3,3‐trifluoropropyl)‐4b,5,6,7,8,8a,9,10‐octahydrophenanthrene‐2‐carboxamide] | had little additional effect | slower | 0.17 µM | 0.38 | 0.38 µM | 0.30 | 71 ± 30 fold | 145% | 0.77 | 24 nM |  | 
2 | CC(C)(C)c1cc(C(C)(C)C)c(NC(=O)c2c[nH]c3ccccc3c2=O)cc1O [ivacaftor, reference compound] | potentiated two‐fold |  | 0.036 µM | 0.31 | 0.14 µM |  | 44 ± 12 fold | 96.7% | 0.71 | 0.21 nM | unaffected by altering the ATP concentration | 100 fold
